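Five concentrations, 48 hours, 96-well plates. GI50: concentration for 50% inhibition of growth. TGI: total growth inhibition.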
Columns and labels:
Assay in all cases: DTP human tumour cell line panel, 48 h
[1] = system: MDA-MB-231 breast
[2] = system: A498 renal
[3] = system: OVCAR-8 ovarian
[4] = system: HT29 colon
[5] = system: OVCAR-3 ovarian
[6] = system: 786-0 renal
[7] = system: DU-145 prostate
[8] = system: NCI-H460 lung
[9] = system: U251 CNS
[10] = system: NCI-H226 lung
[11] = system: KM12 colon
[12] = system: HOP-92 NSCLC
[13] = system: A549 NSCLC
[14] = system: HS 578T breast
[15] = system: UO-31 renal
[16] = system: SR leukemia
[17] = system: K-562 leukemia
[18] = system: NCI-H522 lung
[19] = system: IGROV1 ovarian
[20] = system: SNB-19 CNS
[21] = system: MOLT-4 leukemia
[22] = system: ACHN renal
[23] = system: M14 melanoma
[24] = system: OVCAR-4 ovarian
[25] = system: TK-10 renal
[26] = system: SK-MEL-5 melanoma
[27] = system: SK-MEL-2 melanoma
[28] = system: COLO 205 colon
[29] = system: HCC-2998 colon
[30] = system: BT-549 breast
[31] = system: CAKI-1 renal
[32] = system: HL-60(TB) leukemia
[33] = system: NCI-H23 lung
[34] = system: T-47D breast
[35] = system: MDA-MB-435
[36] = system: CCRF-CEM leukemia
[37] = system: PC-3 prostate
[38] = system: NCI/ADR-RES ovarian
[39] = system: HOP-62 NSCLC
[40] = system: MALME-3M melanoma
[41] = system: SK-MEL-28 melanoma
[42] = system: SF-295 CNS
[43] = system: HCT-15 colon
[44] = system: SK-OV-3 ovarian
[45] = system: RXF 393 renal
[46] = system: SNB-75 CNS
[47] = system: UACC-62 melanoma
[48] = system: SW-620 colon
[49] = system: OVCAR-5 ovarian
[50] = system: HCT-116 colon
[51] = system: UACC-257 melanoma
[52] = system: EKVX NSCLC
[53] = system: SF-539 CNS
[54] = system: SF-268 CNS
[55] = system: SN12C renal

CC(=O)Nc1cccc(Nc2nc(N[C@@H](C)c3ccccc3)c3ccccc3n2)c1
GI50 [1]: 942 nM | TGI [1]: 3600 nM | GI50 [2]: 278 nM | TGI [2]: 1500 nM | TGI [3]: 9300 nM | GI50 [4]: 362 nM | TGI [4]: 5050 nM | GI50 [5]: 359 nM | TGI [5]: 1540 nM | GI50 [6]: 630 nM | TGI [6]: 4280 nM | GI50 [7]: 651 nM | TGI [7]: 6400 nM | GI50 [8]: 356 nM | TGI [8]: 2100 nM | GI50 [9]: 525 nM | TGI [9]: 2900 nM | GI50 [10]: 738 nM | TGI [10]: 21600 nM | GI50 [11]: 439 nM | TGI [11]: 6450 nM | GI50 [12]: 373 nM | TGI [12]: 4940 nM | GI50 [13]: 601 nM | TGI [13]: 5970 nM | GI50 [14]: 361 nM | TGI [14]: 2510 nM | GI50 [15]: 697 nM | TGI [15]: 2330 nM | GI50 [16]: 253 nM | TGI [16]: 2580 nM | GI50 [17]: 270 nM | TGI [17]: > 100000 nM | GI50 [18]: 322 nM | TGI [18]: 2180 nM | GI50 [19]: 507 nM | TGI [19]: 2950 nM | GI50 [20]: 500 nM | TGI [20]: 12600 nM | GI50 [21]: 491 nM | TGI [21]: 6820 nM | GI50 [22]: 672 nM | TGI [22]: 6900 nM | GI50 [23]: 401 nM | TGI [23]: 1610 nM | GI50 [24]: 784 nM | TGI [24]: 11800 nM | GI50 [25]: 6690 nM | TGI [25]: 21200 nM | GI50 [26]: 292 nM | TGI [26]: 1070 nM | GI50 [27]: 832 nM | TGI [27]: 6010 nM | GI50 [28]: 625 nM | TGI [28]: 4340 nM | GI50 [29]: 982 nM | TGI [29]: 2530 nM | GI50 [30]: 3620 nM | TGI [30]: 18700 nM | GI50 [31]: 374 nM | TGI [31]: 2770 nM | GI50 [32]: 303 nM | TGI [32]: 868 nM | GI50 [33]: 387 nM | TGI [33]: 2690 nM | GI50 [34]: 512 nM | TGI [34]: 6470 nM | GI50 [35]: 169 nM | TGI [35]: 419 nM | GI50 [36]: 372 nM | GI50 [37]: 408 nM | TGI [37]: 11400 nM | GI50 [38]: 464 nM | TGI [38]: 4750 nM | GI50 [39]: 808 nM | TGI [39]: 7080 nM | GI50 [40]: 470 nM | TGI [40]: 1900 nM | GI50 [41]: 1000 nM | TGI [41]: 2430 nM | GI50 [42]: 377 nM | TGI [42]: 1560 nM | GI50 [43]: 355 nM | TGI [43]: 1910 nM | GI50 [44]: 679 nM | TGI [44]: 15200 nM | GI50 [45]: 154 nM | TGI [45]: 581 nM | GI50 [46]: 194 nM | TGI [46]: 820 nM | GI50 [47]: 380 nM | TGI [47]: 1930 nM | GI50 [48]: 425 nM | TGI [48]: 5280 nM | GI50 [49]: 1390 nM | TGI [49]: 11600 nM | GI50 [50]: 459 nM | TGI [50]: 1940 nM | GI50 [51]: 1180 nM | TGI [51]: 3430 nM | GI50 [52]: 656 nM | TGI [52]: 16500 nM | GI50 [53]: 318 nM | TGI [53]: 1140 nM | GI50 [54]: 571 nM | TGI [54]: 3280 nM | GI50 [55]: 608 nM | TGI [55]: 2860 nM

Source: PubChem BioAssay (NCI)
